Numbers after ± are expanded uncertainties.
What was measured:
[1] = mn = molality of the nth substance listed, in mol/kg; details: 298.15 K, 101 kPa, Liquid, Vibrating tube method
[2] = 298.15 K; 101.33 kPa; Liquid; Vibrating tube method

## CC(=O)Nc1ccccc1O [N-(2-hydroxyphenyl)ethanamide] + CCCCCCCCO
[1]; m1 = 0.001728
  mass density: 822.19 ± 0.31 kg/m3
[1]; m1 = 0.002758
  mass density: 822.23 ± 0.31 kg/m3
[1]; m1 = 0.003165
  mass density: 822.24 ± 0.31 kg/m3
[1]; m1 = 0.003211
  mass density: 822.24 ± 0.31 kg/m3
[1]; m1 = 0.004195
  mass density: 822.28 ± 0.31 kg/m3
[1]; m1 = 0.005164
  mass density: 822.31 ± 0.31 kg/m3
[1]; m1 = 0.006563
  mass density: 822.36 ± 0.31 kg/m3
[1]; m1 = 0.01154
  mass density: 822.56 ± 0.31 kg/m3
[1]; m1 = 0.0164
  mass density: 822.75 ± 0.31 kg/m3
[1]; m1 = 0.01909
  mass density: 822.86 ± 0.31 kg/m3
[1]; m1 = 0.02399
  mass density: 823.06 ± 0.31 kg/m3
[1]; m1 = 0.03356
  mass density: 823.46 ± 0.31 kg/m3

## CCOc1ccc(NC(C)=O)cc1 [N-(4-ethoxyphenyl)ethanamide] + CCCCCCCCO
[1]; m1 = 0.00971
  mass density: 822.4 ± 0.3 kg/m3
[1]; m1 = 0.01263
  mass density: 822.48 ± 0.31 kg/m3
[1]; m1 = 0.01969
  mass density: 822.67 ± 0.31 kg/m3
[1]; m1 = 0.0229
  mass density: 822.75 ± 0.31 kg/m3
[1]; m1 = 0.02432
  mass density: 822.79 ± 0.31 kg/m3
[1]; m1 = 0.02706
  mass density: 822.86 ± 0.31 kg/m3
[1]; m1 = 0.03645
  mass density: 823.12 ± 0.31 kg/m3
[1]; m1 = 0.04962
  mass density: 823.48 ± 0.31 kg/m3
[1]; m1 = 0.06288
  mass density: 823.85 ± 0.31 kg/m3
[1]; m1 = 0.08214
  mass density: 824.37 ± 0.31 kg/m3
[1]; m1 = 0.105
  mass density: 824.98 ± 0.31 kg/m3
[1]; m1 = 0.1351
  mass density: 825.83 ± 0.31 kg/m3
[1]; m1 = 0.1591
  mass density: 826.63 ± 0.32 kg/m3

## CC(=O)Nc1ccc(O)cc1 [N-acetyl-p-aminophenol] + CCCCCCCCO
[1]; m1 = 0.006684
  mass density: 822.49 ± 0.31 kg/m3
[1]; m1 = 0.009351
  mass density: 822.61 ± 0.31 kg/m3
[1]; m1 = 0.01261
  mass density: 822.76 ± 0.31 kg/m3
[1]; m1 = 0.0141
  mass density: 822.83 ± 0.31 kg/m3
[1]; m1 = 0.01601
  mass density: 822.91 ± 0.31 kg/m3
[1]; m1 = 0.01873
  mass density: 823.05 ± 0.31 kg/m3
[1]; m1 = 0.02173
  mass density: 823.19 ± 0.31 kg/m3
[1]; m1 = 0.02486
  mass density: 823.33 ± 0.31 kg/m3
[1]; m1 = 0.03075
  mass density: 823.59 ± 0.31 kg/m3
[1]; m1 = 0.03578
  mass density: 823.8 ± 0.31 kg/m3
[1]; m1 = 0.04077
  mass density: 824.01 ± 0.31 kg/m3
[1]; m1 = 0.04581
  mass density: 824.23 ± 0.31 kg/m3
[1]; m1 = 0.05103
  mass density: 824.46 ± 0.31 kg/m3
[1]; m1 = 0.05889
  mass density: 824.81 ± 0.31 kg/m3
[1]; m1 = 0.06631
  mass density: 825.1 ± 0.31 kg/m3
[1]; m1 = 0.07665
  mass density: 825.5 ± 0.31 kg/m3
[1]; m1 = 0.08633
  mass density: 825.93 ± 0.31 kg/m3
[1]; m1 = 0.1379
  mass density: 828.16 ± 0.32 kg/m3

## CC(=O)Nc1ccccc1 [N-phenylethanamide] + CCCCCCCCO
[1]; m1 = 0.002139
  mass density: 822.18 ± 0.31 kg/m3
[1]; m1 = 0.00565
  mass density: 822.29 ± 0.31 kg/m3
[1]; m1 = 0.01113
  mass density: 822.46 ± 0.31 kg/m3
[1]; m1 = 0.01413
  mass density: 822.55 ± 0.31 kg/m3
[1]; m1 = 0.02434
  mass density: 822.84 ± 0.31 kg/m3
[1]; m1 = 0.02629
  mass density: 822.9 ± 0.3 kg/m3
[1]; m1 = 0.05259
  mass density: 823.67 ± 0.31 kg/m3
[1]; m1 = 0.08132
  mass density: 824.49 ± 0.31 kg/m3
[1]; m1 = 0.1056
  mass density: 825.18 ± 0.31 kg/m3
[1]; m1 = 0.1482
  mass density: 826.35 ± 0.31 kg/m3
[1]; m1 = 0.1847
  mass density: 827.37 ± 0.31 kg/m3
[1]; m1 = 0.2858
  mass density: 830.1 ± 0.3 kg/m3
[1]; m1 = 0.3663
  mass density: 832.25 ± 0.32 kg/m3

## NC(=O)c1ccccc1 [benzamide] + CCCCCCCCO
[1]; m1 = 0.004751
  mass density: 822.25 ± 0.31 kg/m3
[1]; m1 = 0.009145
  mass density: 822.4 ± 0.31 kg/m3
[1]; m1 = 0.01194
  mass density: 822.49 ± 0.31 kg/m3
[1]; m1 = 0.01802
  mass density: 822.68 ± 0.31 kg/m3
[1]; m1 = 0.02473
  mass density: 822.9 ± 0.31 kg/m3
[1]; m1 = 0.03952
  mass density: 823.38 ± 0.31 kg/m3
[1]; m1 = 0.07569
  mass density: 824.52 ± 0.31 kg/m3
[1]; m1 = 0.108
  mass density: 825.55 ± 0.31 kg/m3
[1]; m1 = 0.1331
  mass density: 826.37 ± 0.31 kg/m3
[1]; m1 = 0.179
  mass density: 827.87 ± 0.31 kg/m3

## O=C(O)c1ccccc1 [benzoic acid] + CCCCCCCCO
[1]; m1 = 0.002452
  mass density: 822.18 ± 0.31 kg/m3
[1]; m1 = 0.005198
  mass density: 822.27 ± 0.31 kg/m3
[1]; m1 = 0.01254
  mass density: 822.53 ± 0.31 kg/m3
[1]; m1 = 0.01324
  mass density: 822.55 ± 0.31 kg/m3
[1]; m1 = 0.03589
  mass density: 823.34 ± 0.31 kg/m3
[1]; m1 = 0.06692
  mass density: 824.43 ± 0.3 kg/m3
[1]; m1 = 0.198
  mass density: 828.84 ± 0.3 kg/m3
[1]; m1 = 0.3209
  mass density: 832.91 ± 0.29 kg/m3
[1]; m1 = 0.4227
  mass density: 836.12 ± 0.29 kg/m3
[1]; m1 = 0.5096
  mass density: 838.89 ± 0.29 kg/m3

## CCCCCCCCO [octan-1-ol]
[2]
  mass density: 822.11 ± 0.24 kg/m3

## Oc1ccccc1 [phenol] + CCCCCCCCO
[1]; m1 = 0.01293
  mass density: 822.32 ± 0.31 kg/m3
[1]; m1 = 0.0235
  mass density: 822.59 ± 0.31 kg/m3
[1]; m1 = 0.03299
  mass density: 822.87 ± 0.31 kg/m3
[1]; m1 = 0.04712
  mass density: 823.32 ± 0.31 kg/m3
[1]; m1 = 0.06563
  mass density: 823.78 ± 0.31 kg/m3
[1]; m1 = 0.1179
  mass density: 825.01 ± 0.32 kg/m3
[1]; m1 = 0.2355
  mass density: 827.82 ± 0.34 kg/m3
[1]; m1 = 0.2692
  mass density: 828.62 ± 0.34 kg/m3
[1]; m1 = 0.3564
  mass density: 831.14 ± 0.35 kg/m3
[1]; m1 = 0.4787
  mass density: 834.18 ± 0.37 kg/m3
